Measured values taken from PMC9364801, “APOBEC3 selects V179I in HIV-1 reverse transcriptase to provide selective advantage for non-nucleoside reverse transcriptase inhibitor-resistant mutants” (Frontiers in virology, 2022).

Legend:
Conditions in all cases: TZM-bl cells, MOI 0.02, 48 h; virus infectivity read-out; NNRTI pocket
[1] = target: T1, HIV-1 reverse transcriptase (RT), HIV-1NL4-3 (Human immunodeficiency virus type 1 (NEW YORK-5 ISOLATE), UniProt P12497); test: single-cycle pseudovirus infection, luciferase; type: cell-based; set-up: gene gag-pol; mature RT p66/p51 heterodimer cut from Gag-Pol polyprotein; […]; tested in TZM-bl cells
[2] = target: T1, HIV-1 reverse transcriptase (RT), HIV-1NL4-3; test: single-cycle pseudovirus infection, luciferase; type: cell-based; set-up: gene gag-pol; mature RT p66/p51 heterodimer cut from Gag-Pol polyprotein; […]; tested in TZM-bl cells; remark: listed apart in the source
[3] = target: T1, HIV-1 reverse transcriptase (RT), HIV-1NL4-3; set-up: gene gag-pol
[4] = target: T1, HIV-1 reverse transcriptase (RT), HIV-1NL4-3; test: single-cycle pseudovirus infection, luciferase; type: cell-based; set-up: gene gag-pol; mature RT p66/p51 heterodimer cut from Gag-Pol polyprotein; […]; tested in TZM-bl cells; remark: listed apart in the source

Cc1cc(C)c(Nc2ccnc(Nc3ccc(C#N)cc3)n2)c(C)c1 [DAP, dapivirine]
DAP EC50 [1]: 0.26 ± 0.13 nM

Cn1c(Cn2ccc(C(F)(F)F)c(Oc3cc(Cl)cc(C#N)c3)c2=O)n[nH]c1=O [DOR, doravirine]
DOR EC50 [2]: 1.4 ± 0.28 nM

O=C1Nc2ccc(Cl)cc2[C@@](C#CC2CC2)(C(F)(F)F)O1 [EFV, efavirenz]
EFV EC50 [3]: 0.65 ± 0.30 nM

Cc1cc(C#N)cc(C)c1Oc1nc(Nc2ccc(C#N)cc2)nc(N)c1Br [ETR, etravirine]
ETR EC50 [4]: 0.83 ± 0.23 nM
